Here are results for 1 molecule from EP3723746B1, “PHENOXY ACIDS FOR THE TREATMENT OF NEUROMUSCULAR DISORDERS” (NMD Pharma A/S, priority 2017, dated 2019).

One experiment has as its target T1, CIC-1 channels (Rattus norvegicus, UniProt P35524).
T1 construct: from tissue; host or cells: whole soleus muscle of 12-14 week old Wistar rats
T1 sequence (P35524 1-994): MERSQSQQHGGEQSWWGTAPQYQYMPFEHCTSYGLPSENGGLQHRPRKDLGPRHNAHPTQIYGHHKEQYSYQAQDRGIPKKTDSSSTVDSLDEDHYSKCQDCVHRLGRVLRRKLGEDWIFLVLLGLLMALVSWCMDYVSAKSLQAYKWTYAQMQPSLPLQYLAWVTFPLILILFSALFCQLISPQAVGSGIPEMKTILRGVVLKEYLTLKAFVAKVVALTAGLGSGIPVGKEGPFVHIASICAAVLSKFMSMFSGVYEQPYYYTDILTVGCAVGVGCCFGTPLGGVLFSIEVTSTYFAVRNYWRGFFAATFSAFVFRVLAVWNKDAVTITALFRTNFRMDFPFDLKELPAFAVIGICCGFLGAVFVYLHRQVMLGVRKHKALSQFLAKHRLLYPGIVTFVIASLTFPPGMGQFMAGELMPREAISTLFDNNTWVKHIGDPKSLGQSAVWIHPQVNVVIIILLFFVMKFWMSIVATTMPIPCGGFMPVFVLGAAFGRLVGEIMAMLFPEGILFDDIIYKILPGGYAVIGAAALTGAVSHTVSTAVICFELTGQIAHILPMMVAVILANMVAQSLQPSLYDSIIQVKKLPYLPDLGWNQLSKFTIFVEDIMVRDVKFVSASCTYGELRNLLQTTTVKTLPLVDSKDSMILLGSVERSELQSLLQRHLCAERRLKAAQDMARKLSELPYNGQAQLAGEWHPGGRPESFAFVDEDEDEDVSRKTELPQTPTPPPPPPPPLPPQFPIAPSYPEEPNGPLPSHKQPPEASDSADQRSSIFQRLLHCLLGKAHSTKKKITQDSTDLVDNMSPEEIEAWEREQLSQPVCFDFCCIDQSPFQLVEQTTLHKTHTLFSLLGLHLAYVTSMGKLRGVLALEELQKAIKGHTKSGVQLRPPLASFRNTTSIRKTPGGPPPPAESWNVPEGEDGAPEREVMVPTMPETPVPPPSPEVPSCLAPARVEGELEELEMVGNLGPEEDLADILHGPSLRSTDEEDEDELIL
The experiment can be described thus: Electrophysiological measurement of compound inhibition of CIC-1 in rat muscle (Gm, three micro-electrode technique, soleus muscle fibres). In kind it is cell-based. The settings on record: reduction of Gm in rat soleus muscle fibres, approx. 30°C; mean ± spread, n = number of experiments. The text has this:
Table 2: Inhibition of CIC-1 ion channel using compounds of the invention

The subject of a further experiment is soleus muscles. The experiment can be described thus: Measurement of force in an in vitro model: recovery of contractile force of isolated rat soleus nerve-muscle preparation after tubocurarine. The procedure:
Recovery of force is quantified as the percentage of the force prior to tubocurarine that is recovered by the compound.
The current invention relates to compounds that inhibit CIC-1 ion channels and increase muscle excitability and thereby improve muscle function in clinical conditions where muscle activation is failing. Such conditions result in loss of contractile function of skeletal muscle, weakness and excessive fatigue. In this series of experiments the compounds were tested for their ability to restore contractile function of isolated rat muscle when the neuromuscular transmission had been compromised akin to neuromuscular disorders.
Experimentally, soleus muscles from 4-5 week old rats were isolated with the motor nerve remaining attached. The nerve-muscle preparations were mounted in experimental setups that enabled electrical stimulation of the motor nerve. Stimulation of the motor nerve led to activation of the muscle fibres and ensuing force production that was recorded.
After mounting the nerve-muscle preparation in the experimental setup, the contractile function of the muscle was initially assessed under the control conditions (Figure 2A). […] The experimental condition mimics the failing neuromuscular transmission in a range of neuromuscular disorders. After addition of tubocurarine the contractile force declined over the next 90 mins to 10-50 % of the control force. 50 µM of the test compound was then added and the contractile force recovered despite the continued presence of tubocurarine. To quantify the ability of the compound to restore force the percentage of the initial force that was restored was determined after 40 mins of compound exposure (Figure 2B) and the point increase is reported in Table 3. Table 3: Percentage increase of initial force that was restored

The next experiment has as its system Lewis rats. The experiment can be described thus: Measurement of in situ muscle contractile characteristics (isometric hindlimb force under cisatracurium block). In kind it is in vivo. The settings on record: 40 mg/kg i.v., cisatracurium infusion, 3 experiments. The procedure: Isometric hindlimb force was measured in 12-week old female Lewis rats in the presence and absence of compound.
Rats were placed under anesthesia with isoflurane (2-4%), intubated and subsequently connected to a micro ventilator (Microvent 1, Hallowell EMC, US). Two stimulation electrodes were inserted through the skin to stimulate the sciatic nerve. A small incision was made proximal to the ankle, to expose the Achilles tendon, which was tied by cotton string, and connected to a force transducer (Fort250, World Precision Instruments) with adjustable position (Vernier control). The Achilles tendon was then cut distal to the attached cotton string. The rat was placed on a heated pad, and to prevent movement artefacts from contraction of the ankle dorsiflexors, the foot was fixated by tape on a footplate.
Muscle contractile properties were assessed by applying an electrical current (under supramaximal voltage conditions) to the nerve and recording the force generated by the muscle. The muscle was stretched until maximal force was obtained, when assessed by 2 Hz stimulation. Isometric force was measured every 30 seconds at 12 Hz (Twitch), 10 pulses, and at every 5 minutes at 80 Hz (Tetanic) for 1 second (80 pulses). This stimulation pattern was employed throughout the experiment, expect in few cases where 80 Hz stimulation was replaced by 12 Hz (10 pulses). […] When the level of neuromuscular inhibition was stable, the test article was injected i.v. at the chosen concentration. The effect of test article was assessed on its ability to increase force generated from the stimulation pattern applied. The effect was assessed in the ability to increase force per se (tetanic, 80 Hz, stimulation), and the ratio between individual twitch peaks (12 Hz stimulation). The effect was monitored for at least 1 hour after injection of test article. In addition, the time from injection of test article to maximal effect on force (both twitch and tetanic) was noted and the time for the effect to disappear (return to baseline), if possible. When appropriate the infusion of neuromuscular blocking agent was ceased, with the stimulation pattern continued, and the return of force to control levels was monitored. Animals were sacrificed by cervical dislocation while still fully sedated.

Usually EC50 stands for the concentration at which the effect is half-maximal.

`C#Cc1cc(Br)ccc1O[C@@H](C)C(=O)O` [Compound A-19, (2S)-2-(4-bromo-2-ethynylphenoxy)propanoic acid]: a half-maximal response on CIC-1 channels (EC50) required 3.5 ± 0.6 µM. The “average force (AUC) relative to initial force” value in the experiment on soleus muscles (Figure 2: 50 µM compound after 90 min incubation in tubocurarine, 3 muscles) is recorded as “recovered”. Besides, the activation at 50 µM in the experiment with soleus muscles (Rattus norvegicus, 40 min, 50 µM test compound, after 90 mins 115 nM tubocurarine, percentage of the initial force restored after 40 mins of compound exposure, read-out: Point increase) is 31%. Besides, in the experiment on Lewis rats (12 Hz stimulation), the “average increase in twitch peaks” value was 9.6%. In addition, the “average increase in tetanic force” value in the experiment with Lewis rats (80 Hz stimulation) turned out to be 44.5%.
